What was measured:
Urease subunit alpha [1] = target: Urease subunit alpha (Helicobacter pylori (strain ATCC 700392 / 26695), UniProt P69997); experiment: Urease Inhibition Assay; conditions: pH 7.4; 4 °C
Procedure: (§1) Briefly, 50 mL broth cultures (2.0 × 10^8 CFU/mL) were centrifuged (5000g, 4°C)to collect the bacteria, and after washing twice with phosphate-buffered saline (pH 7.4), the H. pylori precipitation was stored at −80°C. H. pylori was returnedto room temperature, and after the addition of 3 mL of distilled water and protease inhibitors, sonication was performed for 60 s. Following centrifugation(15,000g, 4°C), the supernatant was desalted through SephadexG-25 column (PD-10 columns, Amersham-Pharmacia Biotech, Uppsala, Sweden). The resultant crude urease solution was added to an equal volume of glycerol and stored at 4°C until use in the experiment. The mixture, containing 25 μL (4U) of H. pylori urease (100 mM HEPES, pH 6.8) and 25 μL of the test compounds of various concentrations, was preincubated for 3 h at room temperature in a 96-well assay plate. After preincubation, 0.2 mL of 100 mM HEPES (pH 6.8) buffer containing 500 mM urea and 0.002% phenol red were added and incubated at 37°C.

Urease subunit alpha [2] = target: Urease subunit alpha (Helicobacter pylori (strain J99 / ATCC 700824) (Campylobacter pylori J99), UniProt I0ZGT0+I0ZGT1); experiment: Urease Inhibition Assay; conditions: pH 7.4; 4 °C
Sequence of Urease subunit alpha (Helicobacter pylori (strain J99 / ATCC 700824) (Campylobacter pylori J99), UniProt I0ZGT0+I0ZGT1) (I0ZGT1 whole entry): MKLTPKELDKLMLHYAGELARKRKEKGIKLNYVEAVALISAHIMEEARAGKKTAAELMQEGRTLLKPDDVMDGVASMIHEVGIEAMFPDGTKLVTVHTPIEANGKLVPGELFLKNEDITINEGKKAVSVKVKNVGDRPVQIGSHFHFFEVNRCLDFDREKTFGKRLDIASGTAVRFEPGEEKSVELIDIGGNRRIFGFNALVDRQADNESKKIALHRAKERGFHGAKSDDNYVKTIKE
Sequence of Urease subunit alpha (Helicobacter pylori (strain J99 / ATCC 700824) (Campylobacter pylori J99), UniProt I0ZGT0+I0ZGT1) (I0ZGT0 whole entry): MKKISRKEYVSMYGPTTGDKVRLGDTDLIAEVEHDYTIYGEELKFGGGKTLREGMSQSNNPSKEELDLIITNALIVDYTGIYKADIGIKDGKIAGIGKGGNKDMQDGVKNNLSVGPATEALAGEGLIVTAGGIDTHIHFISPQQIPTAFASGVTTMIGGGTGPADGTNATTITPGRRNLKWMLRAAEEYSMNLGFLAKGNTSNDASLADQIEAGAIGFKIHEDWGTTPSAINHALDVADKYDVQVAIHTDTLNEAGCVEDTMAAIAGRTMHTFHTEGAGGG
Procedure: as §1

Sequence of Urease subunit alpha (Helicobacter pylori (strain ATCC 700392 / 26695), UniProt P69997) (P14916 whole entry): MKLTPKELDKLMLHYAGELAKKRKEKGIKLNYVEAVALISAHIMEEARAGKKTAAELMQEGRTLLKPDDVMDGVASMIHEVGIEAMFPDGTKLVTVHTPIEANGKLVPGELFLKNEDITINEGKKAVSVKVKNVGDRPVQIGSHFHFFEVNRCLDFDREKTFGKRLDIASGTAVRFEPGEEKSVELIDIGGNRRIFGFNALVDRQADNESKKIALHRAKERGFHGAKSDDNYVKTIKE
Sequence of Urease subunit alpha (Helicobacter pylori (strain ATCC 700392 / 26695), UniProt P69997) (P69997 whole entry): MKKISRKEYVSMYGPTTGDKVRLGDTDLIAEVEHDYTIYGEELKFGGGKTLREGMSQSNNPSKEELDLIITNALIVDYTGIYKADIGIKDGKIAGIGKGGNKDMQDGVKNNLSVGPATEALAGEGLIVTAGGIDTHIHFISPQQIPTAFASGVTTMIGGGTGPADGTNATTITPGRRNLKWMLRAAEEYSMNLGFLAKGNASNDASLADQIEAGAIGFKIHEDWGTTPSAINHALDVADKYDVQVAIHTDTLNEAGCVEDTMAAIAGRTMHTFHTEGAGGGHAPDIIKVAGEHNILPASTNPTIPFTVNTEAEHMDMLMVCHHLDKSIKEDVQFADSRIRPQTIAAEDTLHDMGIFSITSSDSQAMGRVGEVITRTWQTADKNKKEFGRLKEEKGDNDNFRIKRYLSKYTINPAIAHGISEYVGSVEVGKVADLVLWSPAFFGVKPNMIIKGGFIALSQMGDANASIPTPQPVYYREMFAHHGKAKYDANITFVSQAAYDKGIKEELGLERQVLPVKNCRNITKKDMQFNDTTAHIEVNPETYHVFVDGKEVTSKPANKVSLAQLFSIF

IC50 (Urease subunit alpha [1]) [µM]	IC50 (Urease subunit alpha [2]) [µM]	Compound
> 100	–	NCc1ccccc1
–	42.5	CC(=O)NO [acetohydroxamic acid]
–	> 100	Cc1cnc(C(=O)O)cn1 [5-Methylpyrazine-2-carboxylic acid]
> 100	–	Cc1ccc(C(=O)O)cc1 [SAMPL4, O2]

From BindingDB's records for doi:10.3109/14756366.2011.599065 (Wuhan Textile University, 2012)
